Tested on: male spontaneously hypertensive rats
Assay: Decrease in systolic blood pressure in spontaneously hypertensive rats after intravenous bolus injection, indirect (tail-cuff) method
Assay type: in vivo, rat
Conditions: dose 10 mg/kg i.v. bolus; for Decrease in systolic blood pressure (mmHg) time after administration (hour) 0.5: 0.5 hour after administration; for Decrease in systolic blood pressure (mmHg) time after administration (hour) 4: 4 hours after administration
Method: As test animals, four male spontaneously hypertensive rats (weight 400 to 440 g) that were sufficiently adapted for feeding and in which hypertension was confirmed were used.
Physiological saline aqueous solution containing 2.5% Nicolle and 2.5% ethanol of sample was intravenously administered by bolus injection at a dose of 1 ml per 1 kg of body weight. Systolic blood pressure after administration was measured by the indirect (tail-cuff) method.

Row | Structure (SMILES) | Decrease in systolic blood pressure (mmHg) time after administration (hour) 0.5 [mmHg] | Decrease in systolic blood pressure (mmHg) time after administration (hour) 4 [mmHg] | Decrease in systolic blood pressure (mmHg) time after administration (hour) 0.5 (hydrochloride, 10 mg/kg) [mmHg] | Decrease in systolic blood pressure (mmHg) time after administration (hour) 4 (hydrochloride, 10 mg/kg) [mmHg]
1 | CCCCCCCCCC(=O)N1CCC(=C2c3ccccc3C=Cc3ccccc32)CC1 [Example 164, 1-Decanolyl-4-(5H-dibenzo[a,d]cyclohepten-5-ylidene)piperidine] | −91 | −22 | – | –
2 | Cl.N#CCCCN1CCC(=C2c3ccccc3C=Cc3ccccc32)CC1 [Example 165, 1-Cyano-3-[4-(5H-dibenzo[a,d]cyclohepten-5-ylidene)-1-piperidinyl)propane hydrochloride] | – | – | −22 | 12
3 | Cl.N#CCCCN1CCC(=C2c3ccccc3C=Cc3ccccc32)CC1 [Example 166, 1-Cyano-4-[4-(5H-dibenzo[a,d]cyclohepten-5-ylidene)-1-piperidinyl)propane hydrochloride] | – | – | −45 | 6
4 | COc1ccc(C(=O)CCN2CCC(=C3c4ccccc4C=Cc4ccccc43)CC2)cc1OC.Cl [Example 168, 3-(4-(5H-Dibenzo[a,d]cyclohepten-5-ylidene)-1-piperidinyl)-3′,4′-dimethoxypropiophenone hydrochloride] | −108 | 0 | – | –
5 | COc1ccc(C(=O)CCCCN2CCC(=C3c4ccccc4C=Cc4ccccc43)CC2)cc1OC.Cl [Example 169, 5-(4-(5H-Dibenzo[a,d]cyclohepten-5-ylidene)-1-piperidinyl)-3′,4′-dimethoxyvalerophenone hydrochloride] | −130 | −4 | – | –
6 | COc1ccc(C(=O)CCCN2CCC(=C3c4ccccc4C=Cc4ccccc43)CC2)c(OC)c1OC.Cl [Example 171, 4-(4-(5H-Dibenzo[a,d]cyclohepten-5-ylidene)-1-piperidinyl)-2′,3′,4′-trimethoxybutyrophenone hydrochloride] | −122 | −8 | – | –
7 | COc1cccc(CN2CCC(=C3c4ccccc4C=Cc4ccccc43)CC2)c1OC.Cl [Example 173, 4-(5H-Dibenzo[a,d]cyclohepten-5-ylidene)-1-(2,3-dimethoxybenzyl)piperidine hydrochloride] | −98 | −25 | – | –
8 | COc1ccc(CN2CCC(=C3c4ccccc4C=Cc4ccccc43)CC2)cc1OC.Cl [Example 174, 4-(5H-Dibenzo[a,d]cyclohepten-5-ylidene)-1-(3,4-dimethoxybenzyl)piperidine hydrochloride] | −8 | −16 | – | –
9 | COc1ccc(CN2CCC(=C3c4ccccc4C=Cc4ccccc43)CC2)cc1OC [Example 175, 4-(5H-Dibenzo[a,d]cyclohepten-5-ylidene)-1-(3,4-dimethoxybenzyl)piperidine] | −87 | −1 | – | –
10 | Cl.O=C(CCCN1CCC(=C2c3ccccc3C=Cc3ccccc32)CC1)C1CCCCC1 [Example 176, 1-Cyclohexyl-3,(4-(5H-dibenzo[a,d]cyclohepten-5-ylidene)-1-piperidinyl)propylketone hydrochloride] | −105 | −10 | – | –
11 | Cl.O=C1Cc2ccccc2C(=C2CCN(CCCCC3CCCCC3)CC2)c2ccsc21 [Example 180] | −25 | −24 | – | –
12 | Cl.c1ccc2c(c1)Oc1ccccc1C2=C1CCN(CCCCC2CCCCC2)CC1 [Example 181] | −56 | −27 | – | –
13 | Cl.c1ccc2c(c1)Sc1ccccc1C2=C1CCN(CCCCC2CCCCC2)CC1 [Example 182] | −11 | −6 | – | –
14 | COc1cccc(CN2CCC(=C3c4ccccc4CCc4ccccc43)CC2)c1.Cl [Example 184, 4-(10,11-dihydro-5H-dibenzo[a,d]cyclohepten-5-ylidene)-1-(3-methoxybenzyl)piperidine hydrochloride] | −16 | −4 | – | –
15 | CCCCCCCCCCN1CCC(=C2c3ccccc3CCc3ccccc32)CC1.Cl [Example 185, 1-Decyl-4-(10,11-Dihydro-5H-dibenzo[a,d]cyclohepten-5-ylidene)piperidine hydrochloride] | −66 | −10 | – | –
16 | Cl.c1ccc2c(c1)CCc1ccccc1C2=C1CCN(CCCCC2CCCCC2)CC1 [Example 186] | −95 | −12 | – | –
17 | COc1ccc(C(=O)CCCN2CCC(=C3c4ccccc4CCc4ccccc43)CC2)cc1OC.Cl [Example 187, 4-(4-(10,11-Dihydro-5H-dibenzo[a,d]cyclohepten-5-ylidene)-1-piperidinyl)-3′,4′-dimethoxy-butyrophenone hydrochloride] | −47 | −9 | – | –
18 | COc1cc(CN2CCC(=C3c4ccccc4C=Cc4ccccc43)CC2)cc(OC)c1OC [Example 188, 4-(5H-Dibenzo[a,d]cyclohepten-5-ylidene)-1-(3,4,5-trimethoxybenzyl)piperidine] | −94 | −12 | – | –
19 | COc1cc(C(=O)N2CCC(=C3c4ccccc4C=Cc4ccccc43)CC2)cc(OC)c1OC [Example 189, 4-(5H-Dibenzo[a,d]cyclohepten-5-ylidene)-1-(3,4,5-trimethoxybenzoyl)piperidine] | −72 | −15 | – | –
20 | Cc1ccccc1C(=O)N1CCC(=C2c3ccccc3C=Cc3ccccc32)CC1 [Example 190, 4-(5H-Dibenzo[a,d]cyclohepten-5-ylidene)-1-(2-methylbenzoyl)piperidine] | −11 | −15 | – | –
21 | O=C(Cc1ccc(F)cc1)N1CCC(=C2c3ccccc3C=Cc3ccccc32)CC1 [Example 191, 4-(5H-Dibenzo[a,d]cyclohepten-5-ylidene)-1-(2-(4-fluorophenyl)acetyl)piperidine] | −29 | −20 | – | –
22 | COc1cccc(C=CC(=O)N2CCC(=C3c4ccccc4C=Cc4ccccc43)CC2)c1OC [Example 192, 4-(5H-Dibenzo[a,d]cyclohepten-5-ylidene)-1-(2-dimethoxycinnamoyl)piperidine] | −25 | −36 | – | –
23 | COc1cccc(C=CCN2CCC(=C3c4ccccc4C=Cc4ccccc43)CC2)c1OC.Cl [Example 193, 4-(5H-Dibenzo[a,d]cyclohepten-5-ylidene)-1-(2-dimethoxycinnamyl)piperidine hydrochloride] | −124 | −59 | – | –
24 | CCOc1ccc(C(=O)CCCN2CCC(=C3c4ccccc4C=Cc4ccccc43)CC2)cc1OCC.Cl [Example 194, 4-(4-(5H-Dibenzo[a,d]cyclohepten-5-ylidene)-1-piperidinyl)-3′,4′-diethoxybutyrophenone hydrochloride] | −59 | −17 | – | –
25 | Cl.Cl.Nc1ccc(CCCCN2CCC(=C3c4ccccc4C=Cc4ccccc43)CC2)cc1 [Example 195, 1-(4-(4-Aminophenyl)butyl)-4-(5H-dibenzo[a,d]cyclohepten-5-ylidine)piperidine dihydrochloride] | −100 | −51 | – | –
26 | Cl.O=[N+]([O-])c1ccc(CCCCN2CCC(=C3c4ccccc4C=Cc4ccccc43)CC2)cc1 [Example 196, 4-(5H-Dibenzo[a,d]cyclohepten-5-ylidene)-1-(4-(4-nitrophenyl)butyl)piperidine hydrochloride] | −145 | −81 | – | –
27 | CC(=O)Nc1ccc(CCCCN2CCC(=C3c4ccccc4C=Cc4ccccc43)CC2)cc1.Cl.Cl [Example 197] | −51 | −26 | – | –
28 | Cc1ccc(C(=O)CCCN2CCC(=C3c4ccccc4C=Cc4ccccc43)CC2)cc1C.Cl [Example 198] | −124 | −25 | – | –
29 | CCOC(=O)CCCN1CCC(=C2c3ccccc3C=Cc3ccccc32)CC1.Cl [Example 199, Ethyl 4-(4-(5H-dibanzo[a,d]cyclohepten-5-ylidene)-1-piperidinyl)butyrate hydrochloride] | −15 | −24 | – | –
30 | O=C(O)CCCN1CCC(=C2c3ccccc3C=Cc3ccccc32)CC1 [Example 200] | −10 | −24 | – | –

— USRE38257E1, “Piperdine derivatives and hypotensives containing the same” (Ajinomoto Co., Inc., priority 1988, dated 2003)
